Calls of active or inactive are those of the source. The rule behind the calls is not given here.
Legend:
[1] = Cytotoxicity against human RPMI8226 cells assessed as growth inhibition at 10 uM after 48 hrs by SRB assay; assay type: functional; details: RPMI-8226, 48 h, read-out: GI
U-251 = assay: Cytotoxicity against human U251 cells assessed as growth inhibition at 10 uM after 48 hrs by SRB assay; assay type: functional; details: U-251, 48 h, read-out: GI
[2] = Cytotoxicity against human MOLT4 cells assessed as growth inhibition at 10 uM after 48 hrs by SRB assay; assay type: functional; details: MOLT-4, 48 h, read-out: GI
MDA-MB-435 = assay: Cytotoxicity against human MDA-MB-435 cells assessed as growth inhibition at 10 uM after 48 hrs by SRB assay; assay type: functional; details: MDA-MB-435, 48 h, read-out: GI
Malme-3M [3] = assay: Cytotoxicity against human MALME-3M cells assessed as growth inhibition at 10 uM after 48 hrs by SRB assay; assay type: functional; details: read-out: GI
HT-29 = assay: Cytotoxicity against human HT-29 cells assessed as growth inhibition at 10 uM after 48 hrs by SRB assay; assay type: functional; details: HT-29, 48 h, read-out: GI
ACHN [4] = assay: Cytotoxicity against human ACHN cells assessed as growth level at 10 uM after 48 hrs by SRB assay; assay type: functional
Malme-3M [5] = assay: Cytotoxicity against human MALME-3M cells assessed as growth level at 10 uM after 48 hrs by SRB assay; assay type: functional
[6] = Cytotoxicity against human SF539 cells assessed as growth level at 10 uM after 48 hrs by SRB assay; assay type: functional, SF-539
K562 = assay: Cytotoxicity against human K562 cells assessed as growth inhibition at 10 uM after 48 hrs by SRB assay; assay type: functional; details: K562, 48 h, read-out: GI
786-0 = assay: Cytotoxicity against human 786-0 cells assessed as growth level at 10 uM after 48 hrs by SRB assay; assay type: functional
CCRF-CEM [7] = assay: Cytotoxicity against human CCRF-CEM cells assessed as growth level at 10 uM after 48 hrs by SRB assay; assay type: functional
NCI-H522 = assay: Cytotoxicity against human NCI-H522 cells assessed as growth inhibition at 10 uM after 48 hrs by SRB assay; assay type: functional; details: NCI-H522, 48 h, read-out: GI
[8] = Cytotoxicity against human UACC62 cells assessed as growth level at 10 uM after 48 hrs by SRB assay; assay type: functional, UACC-62
[9] = Cytotoxicity against human HCT15 cells assessed as growth level at 10 uM after 48 hrs by SRB assay; assay type: functional, HCT-15
[10] = Cytotoxicity against human SNB75 cells assessed as growth level at 10 uM after 48 hrs by SRB assay; assay type: functional, SNB-75
[11] = Cytotoxicity against human LOXIMVI cells assessed as growth level at 10 uM after 48 hrs by SRB assay; assay type: functional, LOX IMVI
[12] = Cytotoxicity against human HCC2998 cells assessed as growth inhibition at 10 uM after 48 hrs by SRB assay; assay type: functional; details: HCC 2998, 48 h, read-out: GI
[13] = Cytotoxicity against human OVCAR3 cells assessed as growth level at 10 uM after 48 hrs by SRB assay; assay type: functional, OVCAR-3
[14] = Cytotoxicity against human SF295 cells assessed as growth level at 10 uM after 48 hrs by SRB assay; assay type: functional, SF-295
[15] = Cytotoxicity against human SNB19 cells assessed as growth level at 10 uM after 48 hrs by SRB assay; assay type: functional, SNB-19
NCI-H226 = assay: Cytotoxicity against human NCI-H226 cells assessed as growth level at 10 uM after 48 hrs by SRB assay; assay type: functional
EKVX = assay: Cytotoxicity against human EKVX cells assessed as growth inhibition at 10 uM after 48 hrs by SRB assay; assay type: functional; details: for inhibition of growth at 10 µM: read-out: GI
[16] = Cytotoxicity against human UO31 cells assessed as growth level at 10 uM after 48 hrs by SRB assay; assay type: functional, UO-31
[17] = Cytotoxicity against human HOP62 cells assessed as growth inhibition at 10 uM after 48 hrs by SRB assay; assay type: functional; details: HOP-62, 48 h, read-out: GI
MCF7 = assay: Cytotoxicity against human MCF7 cells assessed as growth inhibition at 10 uM after 48 hrs by SRB assay; assay type: functional; details: MCF7, 48 h, read-out: GI
A549 = assay: Cytotoxicity against human A549 cells assessed as growth level at 10 uM after 48 hrs by SRB assay; assay type: functional
[18] = Cytotoxicity against human PC3 cells assessed as growth level at 10 uM after 48 hrs by SRB assay; assay type: functional, PC-3
[19] = Cytotoxicity against human RXF393 cells assessed as growth level at 10 uM after 48 hrs by SRB assay; assay type: functional, RXF 393
[20] = Cytotoxicity against human UACC62 cells after 48 hrs by SRB assay; assay type: functional; details: UACC-62, 48 h
[21] = Cytotoxicity against human OVCAR3 cells after 48 hrs by SRB assay; assay type: functional; details: OVCAR-3, 48 h
[22] = Cytotoxicity against human TK10 cells after 48 hrs by SRB assay; assay type: functional; details: TK-10, 48 h
NCI-H322M = assay: Cytotoxicity against human NCI-H322M cells after 48 hrs by SRB assay; assay type: functional
[23] = Cytotoxicity against human UACC257 cells after 48 hrs by SRB assay; assay type: functional; details: UACC-257, 48 h
SK-MEL-5 = assay: Cytotoxicity against human SK-MEL-5 cells after 48 hrs by SRB assay; assay type: functional; details: SK-MEL-5, 48 h
[24] = Cytotoxicity against human MOLT4 cells after 48 hrs by SRB assay; assay type: functional; details: MOLT-4, 48 h
[25] = Cytotoxicity against human Hs578T cells after 48 hrs by SRB assay; assay type: functional; details: Hs-578T
CCRF-CEM [26] = assay: Cytotoxicity against human CCRF-CEM cells after 48 hrs by SRB assay; assay type: functional
ACHN [27] = assay: Cytotoxicity against human ACHN cells after 48 hrs by SRB assay; assay type: functional
[28] = Cytotoxicity against human OVCAR4 cells after 48 hrs by SRB assay; assay type: functional; details: OVCAR-4, 48 h
[29] = Cytotoxicity against human SKOV3 cells after 48 hrs by SRB assay; assay type: functional; details: SK-OV-3, 48 h
[30] = Cytotoxicity against human PC3 cells after 48 hrs by SRB assay; assay type: functional; details: PC-3, 48 h
[31] = read-out: LC50 (the source's name)

Compound: C=C1CC[C@@H]2[C@](C)(COC(C)=O)[C@H](OC(C)=O)CC[C@@]2(C)[C@@H]1CC(NCCCC)C1=CCOC1=O (mixture of isomers)
- inhibition of growth at 10 µM [1]: 39.5%
- inhibition of growth at 10 µM (U-251): 13.2%
- inhibition of growth at 10 µM [2]: 44.5%
- inhibition of growth at 10 µM (MDA-MB-435): 11.4%
- inhibition of growth at 10 µM (Malme-3M [3]): 2.43%
- inhibition of growth at 10 µM (HT-29): 17.4%
- Activity (ACHN [4]): 99.42%
- Activity (Malme-3M [5]): 97.57%
- Activity [6]: 90.54%
- inhibition of growth at 10 µM (K562): 30.5%
- Activity (786-0): 96.07%
- Activity (CCRF-CEM [7]): 80.69%
- inhibition of growth at 10 µM (NCI-H522): 20.9%
- Activity [8]: 72.38%
- Activity [9]: 96.89%
- Activity [10]: 77.87%
- Activity [11]: 90.39%
- inhibition of growth at 10 µM [12]: 7.9%
- Activity [13]: 91.12%
- Activity [14]: 94.28%
- Activity [15]: 87.32%
- Activity (NCI-H226): 75.67%
- inhibition of growth at 10 µM (EKVX): 28.6%
- Activity [16]: 84%
- inhibition of growth at 10 µM [17]: 6.04%
- inhibition of growth at 10 µM (MCF7): 17.1%
- Activity (A549): 81.23%
- Activity [18]: 51.19%
- Activity [19]: 104.19%

Compound: C=C1CC[C@@H]2[C@](C)(COC(C)=O)[C@H](OC(C)=O)CC[C@@]2(C)[C@@H]1CC(NCc1cccc(Cl)c1)C1=CCOC1=O (mixture of isomers)
- inhibition of growth at 10 µM [1]: 72.8%
- inhibition of growth at 10 µM (U-251): 69.1%
- inhibition of growth at 10 µM [2]: 78.1%
- inhibition of growth at 10 µM (MDA-MB-435): 48.4%
- inhibition of growth at 10 µM (Malme-3M [3]): 23.9%
- inhibition of growth at 10 µM (HT-29): 74.5%
- Activity (ACHN [4]): 41.58%
- Activity (Malme-3M [5]): 76.11%
- Activity [6]: 74.12%
- inhibition of growth at 10 µM (K562): 81.5%
- Activity (786-0): 62%
- Activity (CCRF-CEM [7]): 42.29%
- inhibition of growth at 10 µM (NCI-H522): 47.5%
- Activity [8]: 41.2%
- Activity [9]: 37.72%
- Activity [10]: 85.86%
- Activity [11]: 12.71%
- inhibition of growth at 10 µM [12]: 15.4%
- Activity [13]: 47.44%
- Activity [14]: 85.92%
- Activity [15]: 55.56%
- Activity (NCI-H226): 46.32%
- inhibition of growth at 10 µM (EKVX): 22.1%
- Activity [16]: 46.94%
- inhibition of growth at 10 µM [17]: 44%
- inhibition of growth at 10 µM (MCF7): 57%
- Activity (A549): 54.21%
- Activity [18]: 30.08%
- Activity [19]: 50.51%

Compound: C=C1CC[C@@H]2[C@](C)(COC(C)=O)[C@H](OC(C)=O)CC[C@@]2(C)[C@@H]1C/C=C1/C(=O)OC[C@H]1OC(C)=O
- inhibition of growth at 10 µM [1]: 85.9%
- inhibition of growth at 10 µM (U-251): 46%
- inhibition of growth at 10 µM [2]: 6.05%
- inhibition of growth at 10 µM (MDA-MB-435): 66.9%
- inhibition of growth at 10 µM (Malme-3M [3]): 22.3%
- inhibition of growth at 10 µM (HT-29): 39.4%
- GI50 [20]: 3.37 µM
- LC50 [20]: 40.7 µM
- TGI [20]: 13.5 µM
- Activity (ACHN [4]): 19.55%
- Activity (Malme-3M [5]): 77.72%
- Activity [6]: 8.54%
- inhibition of growth at 10 µM (K562): 88.9%
- GI50 [21]: 2.17 µM
- LC50 (concentration killing 50% of cells) [21]: 8.15 µM
- TGI [21]: 4.21 µM
- Activity (786-0): -10.88%
- GI50 [22]: 3.81 µM
- LC50 [22]: 38.2 µM
- TGI [22]: 13.3 µM
- Activity (CCRF-CEM [7]): -11.4%
- GI50 (NCI-H322M): 16 µM
- LC50 (NCI-H322M): 55.3 µM
- TGI (NCI-H322M): 29.7 µM
- GI50 [23]: 6.2 µM
- LC50 (concentration killing 50% of cells) [23]: 53.2 µM
- TGI [23]: 19.9 µM
- inhibition of growth at 10 µM (NCI-H522): 41.6%
- GI50 (SK-MEL-5): 9.5 µM
- LC50 (concentration killing 50% of cells) (SK-MEL-5): 51 µM
- TGI (SK-MEL-5): 22.4 µM
- Activity [8]: 29.71%
- Activity [9]: -23.04%
- Activity [10]: 44.87%
- Activity [11]: -74.4%
- inhibition of growth at 10 µM [12]: 32.7%
- Activity [13]: -21.32%
- Activity [14]: 95.02%
- Activity [15]: 82.96%
- Activity (NCI-H226): 23.61%
- growth inhibition (GI) (EKVX): inactive
- Activity [16]: 62.83%
- inhibition of growth at 10 µM [17]: 24.2%
- inhibition of growth at 10 µM (MCF7): 77.1%
- GI50 [24]: 3.8 µM
- LC50 [24]: > 100 µM
- TGI [24]: 16.1 µM
- GI50 [25]: 12.3 µM
- LC50 (concentration killing 50% of cells) [25]: > 100 µM
- TGI [25]: 55.4 µM
- GI50 (CCRF-CEM [26]): 1.12 µM
- TGI (CCRF-CEM [26]): 5.32 µM
- CC50 (CCRF-CEM [26]; [31]): > 100 µM
- Activity (A549): 85.77%
- GI50 (ACHN [27]): 1.71 µM
- LC50 (ACHN [27]): 6.06 µM
- TGI (ACHN [27]): 3.22 µM
- GI50 [28]: 3.57 µM
- TGI [28]: 15.4 µM
- CC50 [28, 31]: 41.8 µM
- Activity [18]: 88.46%
- Activity [19]: -7.35%
- GI50 [29]: 19.1 µM
- TGI [29]: 36.3 µM
- CC50 [29, 31]: 68.8 µM
- GI50 [30]: 6.07 µM
- LC50 [30]: 48.9 µM
- TGI [30]: 19.9 µM
